According to publication PMC12595476, “FibrilPaint to determine the length of Tau amyloids in fluids” (Proceedings of the National Academy of Sciences of the …, 2025):
Peptide text beside a SMILES is read from it. * marks the point of attachment. 5FAM = O=C1OC2(c3ccc(O)cc3Oc3cc(O)ccc32)c2ccc(C(=O)*)cc21

How the values were obtained:
TauRD fibrils [1] = target: T1, TauRD fibrils (Homo sapiens, UniProt P10636, DEL597-597); assay: Monolith (MST / spectral shift) binding to TauRD fibrils; conditions: based on monomer concentration; 50 nM FibrilPaint1, TauRD fibrils 0.5 nM to 10 µM, pH 7.5, 37 °C; N = 3
T1 construct: We used Tau Repeat Domain (Q244-E372, TauRD) with the proaggregation mutation ΔK280; made in house; host or cells: E. coli BL21 Rosetta 2
Protocol: (§1) We confirmed that FibrilPaint1 binds specifically TauRD fibrils and not monomers by assessing binding affinity with monolith spectral shift analysis (Fig. 1 D and E). […] Since many monomers are needed to form one fibril, true affinity lies higher.
(§2) FibrilPaint1 (50 nM) was titrated with TauRD monomer or fibrils (0.5 nM to 10 µM) at 37 °C (Monolith NT.115); binding was extracted from the 5 s MST response.
(§3) Aragonès Pedrola, Dekker, et al. August 2025 FibrilPaint
(§4) FibrilRuler Test: Size measurement with Flow Induced Dispersion […]
(§5) Flow Induced Dispersion Analysis (FIDA) was used to determine fibril size. The FIDA experiments were performed using a FIDA1 with a 480 nm excitation source. […]
(§6) Data points were analysed using FIDAbio software, version 2.7. […]
(§7) Binding between FibrilPaint1 and TauRD monomers and fibrils was analyzed using Monolith (NanoTemper Technologies) Microscale thermophoresis system (MST). Thermophoresis was monitored at a concentration of 50 nM of FibrilPaint1 and a dilution series of the sample of interest, in 25 mM HEPES-KOH pH 7.5, 75 mM KCl, 75 mM NaCl. […]
(§8) Using equation 1, where L is the length and R the radius of the analysed particle, the mean length of the fibrils as function of Rh can be calculated.
(§9) As a model, PHF Fibril layers were stacked on top of each other using PyMOL software. […] Resulting structures were analysed for their Rh using FIDAbio hydrodynamic radii predictor.

TauRD monomers = target: T2, TauRD monomers (Homo sapiens, UniProt P10636, DEL597-597); assay: Monolith (MST / spectral shift) binding to TauRD monomers; conditions: 50 nM FibrilPaint1, 37 °C, N = 3, unit inferred
T2 construct: We used Tau Repeat Domain (Q244-E372, TauRD) with the proaggregation mutation ΔK280; made in house; host or cells: E. coli BL21 Rosetta 2
T2 sequence (P10636 with tags, fused parts or gaps isoform P10636-8 DEL280-280): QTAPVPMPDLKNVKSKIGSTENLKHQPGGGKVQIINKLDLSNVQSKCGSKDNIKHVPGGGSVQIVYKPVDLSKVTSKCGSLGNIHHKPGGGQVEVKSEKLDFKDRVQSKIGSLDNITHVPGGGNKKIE
Protocol: as §1, §2, §3, §4, §5, §6, §7, §8, §9

[2] = tested on: TauRD (Tau Repeat Domain Q244-E372, ΔK280); assay: ThT assay of TauRD aggregation with titrated FibrilPaint peptides (ThT inhibition); assay type: biochemical, human; conditions: for ThT end-plateau / emitted ThT signal: 20 μM TauRD, 5 µM heparin, 45 µM ThT, peptide 2, 0.2, 0.02 µM, pH 7.4, 37 °C, triplicates, N = 3; for Tht inhibition: Yes/No, Suppl. Table S1
Text: We used Tau Repeat Domain (Q244-E372, TauRD) with the proaggregation mutation ΔK280 as a model for screening our FibrilPaint compounds. We performed a Thioflavin T (ThT) assay. ThT is an amyloid dye and provides a semiqualitative method used for the identification of amyloid structures in vitro and histology staining ([32], [33], [38]). A ThT assay is an established method to monitor protein fibrils formation, in which the fluorescent dye ThT emits fluorescence upon binding to fibrils ([38]). We identified 45 µM ThT as optimal concentration to study the kinetics of TauRD aggregation (SI Appendix, Fig. S1), in line with the literature ([39]).
Twenty µM TauRD + 5 µM heparin were incubated ± 45 µM ThT in 25 mM HEPES-KOH pH 7.4, 75 mM KCl/NaCl (37 °C). ThT fluorescence (440/485 nm) was recorded every 5 min for 24 h on a CLARIOstar® Plus; peptides were added as indicated. […]
Peptide synthesis and purification
The peptides were synthesized using a Liberty Blue Microwave-Assisted Peptide Synthesizer (CEM) with standard Fmoc chemistry and Oxyma/DIC as coupling reagents. The peptide concentrations were measured by UV spectroscopy. The peptides were labeled with 5(6)-carboxyfluorescein at their N’ termini. The peptides were cleaved from the resin with a mixture of 95% (v/v) trifluoroacetic acid (TFA), 2.5% (v/v) triisopropylsilane (TIS), 2.5% (v/v) triple distilled water (TDW) agitating vigorously for 3 hours at room temperature. The volume was decreased by N2 flux and the peptides precipitated by addition of 4 volumes of diethylether at -20 °C. The peptides were sedimented at -20 °C for 30 minutes, then centrifuged and the diethylether discarded. The peptides were washed three times with diethylether and dried by gentle N2 flux. The solid was dissolved in 1:2 volume ratio of acetonitrile (ACN):TDW, frozen in liquid Nitrogen and lyophilized.
The peptides were purified on a WATERS HPLC using a reverse-phase C18 preparative column with a gradient of ACN/TDW. The identity and purity of the peptides was verified by ESI mass spectrometry and Merck Hitachi analytical HPLC using a reverse-phase C8 analytical column.
Aggregation of 20 µM TauRD in 25 mM HEPES-KOH pH 7.4, 75 mM KCl, 75 mM
NaCl, ½ tablet/50 ml Protease Inhibitor, was induced by the addition 5 µM of heparin low molecular weight Impact of FibrilPaint peptides was assessed by adding 0.02, 0.2 or 2 µM of peptide.
Monitoring TauRD aggregation by thioflavin T (ThT) fluorescence
For monitoring the aggregation of TauRD by fluorescence, ThT was added to the aggregation mixture before addition of heparin. We used 45 µM ThT as standard condition, unless stated otherwise. […]. […]

TauRD fibrils [3] = target: T1, TauRD fibrils; assay: FIDA (FibrilRuler Test): binding to TauRD fibrils; conditions: detection of Tau amyloid fibrils with FIDA; Yes/No; Suppl. Table S1
Text: (§10) Next, we screened the four FibrilPaint peptides for direct binding to TauRD fibrils. We developed an application of FIDA to determine the size of amyloid aggregates, called the FibrilRuler Test (Fig. 1B). FIDA is a recently established technique to measure size of protein complexes ([40], [41]). In FIDA, the detector records the fluorescence signal after passage of the sample through a long capillary. The sample passes a detector window, resulting in a size-dependent diffusion profile of the fluorescent compound. Smaller species diffuse faster and bigger ones slower, resulting in a narrow or broad dispersion of the fluorescent signal (Fig. 1B). Since FIDA readout relies on the physical diffusion properties of the sample, we can measure the hydrodynamic radius (Rh) of labeled species from the fluorescent signal ([42]–[44]). The Rh is a parameter corresponding to the size and shape of a molecule or a complex in solution. It is the radius of the sphere created by the tumbling particle. Rh values can be estimated from the structural coordinates, either by experimental methods or by predictions such as AlphaFold (SI Appendix, Table S2). For known structures, e.g., for many protein fibrils, an experimentally determined Rh value allows us to estimate the dimensions of the particle.
(§11) With this setup, we determined the Rh of FibrilPaint1 to 4 to be 1.7 nm each (SI Appendix, Table S1). The binding of the fluorescently labeled FibrilPaint peptide to protein fibrils increases the Rh value, as the peptide now tumbles together with the larger fibril (Fig. 1B). To measure the Rh of fibril complexes, we incubated preformed fibrils together with each of the four peptides in a 1:100 peptide:monomer ratio, using 200 nM peptide with fibrils made of 20 μM TauRD monomers.
(§12) Preformed or patient-derived fibrils (2 µM monomer) were mixed with 50 nM Fl-FibrilPaint1 and analyzed in capillary dissociation mode (25 °C, FIDA 1). […]
as §6
Target sequence in this assay (P10636 with tags, fused parts or gaps isoform P10636-8 DEL280-280): as above

[4] = FIDA: Rh of peptide alone (unbound); assay type: physicochemical; conditions: peptide not bound to anything
Text: as §10, §11, §12, §6

Amyloid-β (Aβ) plaques = conditions: in words; cited from earlier work
Text: The formation of amyloid fibrils is one of the earliest pathological hallmarks of neurodegenerative diseases ([3], [6], [12]–[15]). […] In AD, Aβ aggregation outside the cell precedes Tau aggregation inside the cell ([4], [13], [18]).

Row | Molecule | Kd (TauRD fibrils [1]) [µM] | Kd (TauRD monomers) [µM] | ThT end-plateau / emitted ThT signal [2] | Tht inhibition [2] | Fibril binding (TauRD fibrils [3]) | Hydrodynamic radius (Rh) [4] [nm] | clinical effect (Amyloid-β (Aβ) plaques) | risks (Amyloid-β (Aβ) plaques)
1 | CC(C)[C@H](NC(=O)[C@H](CCC(=O)O)NC(=O)[C@H](CCC(=O)O)NC(=O)[C@H](CO)NC(=O)CNC(=O)[C@H](CO)NC(=O)CNC(=O)[C@H](Cc1c[nH]cn1)NC(=O)[C@@H]1CCCN1C(=O)[C@H](Cc1c[nH]cn1)NC(=O)[C@H](Cc1c[nH]cn1)NC(=O)[C@H](Cc1c[nH]c2ccccc12)NC(=O)[C@@H]1CCCN1C(=O)[C@H](Cc1c[nH]c2ccccc12)NC(=O)[C@H](Cc1c[nH]c2ccccc12)NC(=O)[C@@H]1CCCN1C(=O)[C@H](CCCNC(=N)N)NC(=O)[C@H](CCCNC(=N)N)NC(=O)[C@H](Cc1c[nH]c2ccccc12)NC(=O)[C@H](Cc1c[nH]c2ccccc12)NC(=O)[C@@H]1CCCN1C(=O)c1ccc2c(c1)C(=O)OC21c2ccc(O)cc2Oc2cc(O)ccc21)C(=O)N[C@@H](CC(=O)O)C(=O)O [FibrilPaint1] (5FAM-PWWRRPWWPWHHPHGSGSEEVD-OH) | 1.6 | > 10 | – | – | – | – | – | –
2 | (Fl)-PWIRRPWWPWTTPTGSGSEEVD [FibrilPaint2, 22-residue fluorescein-labeled peptide] | – | – | lower the end-plateau in a dose-dependent manner | Yes | No | 1.7 | – | –
3 | (Fl)-PWWDDPWWPWHHPHGSGSEEVD [FibrilPaint4, 22-residue fluorescein-labeled peptide] | – | – | lower the end-plateau in a dose-dependent manner | Yes | No | 1.7 | – | –
4 | (Fl)-PWWDDPWWPWTTPTGSGSEEVD [FibrilPaint3, 22-residue fluorescein-labeled peptide] | – | – | lower the end-plateau in a dose-dependent manner | Yes | No | 1.7 | – | –
5 | Lecanemab: antibody approved to target Amyloid-β (Aβ) plaques (antibody, chains of the INN, looked up, V domains shown) VH: EVQLVESGGGLVQPGGSLRLSCSASGFTFSSFGMHWVRQAPGKGLEWVAYISSGSSTIYYGDTVKGRFTISRDNAKNSLFLQMSSLRAEDTAVYYCAREGGYYYGRSYYTMDYWGQGTTVTVSS VL: DVVMTQSPLSLPVTPGAPASISCRSSQSIVHSNGNTYLEWYLQKPGQSPKLLIYKVSNRFSGVPDRFSGSGSGTDFTLRISRVEAEDVGIYYCFQGSHVPPTFGPGTKLEIK | – | – | – | – | – | – | modest | significant risks involved
